Experimental findings from patent publication US12208111B2 (LUNELLA BIOTECH, INC., priority 2018, dated 2025) are described below.

What all share (format): cell-based, human
Data set [1] relates to senescent MRC-5 cells. The data set can be described thus: SRB assay, viability of BrdU-induced senescent MRC-5 fibroblasts. Here is the method:
(§1) Bromodeoxyuridine (5-bromo-2′-deoxyuridine), also known as BrdU, may be used to induce senescence. BrdU is an analog of the nucleoside thymidine commonly used to identify proliferating cells. BrdU induces controlled DNA damage, and drives cells towards senescence with high efficiency. The BrdU assay of the present approach calls for subjecting normal fibroblasts to prolonged culture (8-days) in the presence of BrdU at 100 μM to induce controlled DNA-damage and senescence. […] Then, isogenically-matched cultures of normal and senescent fibroblasts may be used for drug screening to identify drugs having senolytic activity. Senolytic activity may be detected using the sulforhodamine B assay, also known in the art as the SRB assay. This assay measures the amount of protein remaining attached to the tissue-culture dishes, and is a surrogate marker for cell viability. This approach may be used to rapidly screen compounds, including clinically-approved drugs, such as, for example, antibiotics. […] It should be appreciated that the present approach may be used to screen other compounds.
After that, the SRB assay was performed to determine the effects of the drug on cell viability. […] The scale bar in the upper-right of FIGS. 3B and 3C represents 20 μm.
After the 5-day exposure, the SRB assay was performed to determine the effects of the drug on cell viability. […] The * indicates p<0.05 in FIG. 4.
MRC-5 or BJ cells were plated into 24-well plates. Next day, half of the plate was treated with 100 μM of BrdU while control wells were treated with vehicle only (DMSO) and incubated for 8 days at 37° C. in a 5% CO2 humidified atmosphere. […] BrdU is washed out before the drug treatments.
Sulphorhodamine B assay: After the incubation of the plates cell viability was measured by Sulphorhodamine B assay (SRB). The assay is based on the measurement of cellular protein contents. Cells were fixed with 10% Trichloroacetic acid (TCA) for 1 hour at 4 °C, and were dried overnight at room temperature. Then, plates were incubated with SRB for 30 min, washed twice with 1% acetic acid and air dried for at least 1 h. Finally, the protein-bound dye was dissolved in a 10 mM Tris, pH 8.8, solution and read using a plate reader at 540-nm.

In data set [2] the test system is normal MRC-5 lung fibroblasts. The data set can be described thus: SRB assay, viability of normal MRC-5 fibroblasts. Conditions: 100 μM, 5 days. Here is the method: as §1, with “compounds. […]” for “compounds.”
Sulphorhodamine B assay: After the incubation of the plates cell viability was measured by Sulphorhodamine B assay (SRB). […] Finally, the protein-bound dye was dissolved in a 10 mM Tris, pH 8.8, solution and read using a plate reader at 540-nm.
For orientation: The SRB assay estimates cell density from bound dye.

In data set [3] the test system is senescent MRC-5 cells. Briefly: xCELLigence real-time cell analysis, senescent (BrdU-treated) MRC-5 fibroblasts. To be noted: 90 μM, 5 days after BrdU wash out. From the text:
(§2) In further application of the present approach, the selectivity of azithromycin towards senescent cells was validated using the xCELLigence system. Because senescent cells undergo the so-called senescence-associated secretory phenotype (SASP), which involves dramatic increases in the synthesis and secretion of proteins, the inventors assessed whether the protein measurement assay system under-estimates the senolytic activity of tested compounds. […] The normalized cell index for the control was noticeably higher immediately after treatment, and coincided with the BrdU-only curve until about hour 235. […] For the data shown in FIGS. 9A and 9B, the **** indicates p<0.001. The real-time xCELLigence assay system thus compliments the more static SRB assay, and offers a more direct visualization of the potential senolytic effects of compounds during drug screening. The xCELLigence assays were also used to confirm senolytic activity for roxithromycin and telithromycin. […] MRC-5 fibroblasts were used for these assays. […] Note that in FIG. 10A. * indicates p<0.01. From top to bottom at time 249 hours, the lines represent the control, BrdU-only, Control with roxithromycin (90 μM), and BrdU with roxithromycin. […] The same approach was used to confirm senolytic activity for telithromycin. […] This approach allows the quantification of the onset and kinetics of the cellular response. […]

For data set [4], the system named is normal control MRC-5 cells. The data set can be described thus: xCELLigence real-time cell analysis, normal MRC-5 fibroblasts. Conditions: 90 μM.
From the text: as §2

Data set [5] relates to MRC-5 fibroblasts. Briefly: DNA synthesis / cell cycle, Muse cell cycle kit. To be noted: two-day treatment with BrdU. The protocol:
The […] […] Autophagy and Cell cycle analysis: Autophagy (using MuseTMM Autophagy LC3-antibody based Kit, Merck Millipore) and cell cycle (Muse® Cell Cycle Kit, Merck Millipore) experiments were performed according to manufacturer's instructions.

Data set [6] relates to MRC-5 cells. Briefly: Beta-galactosidase staining. To be noted: 8 days of BrdU treatment. The protocol:
Furthermore, the inventors validated the use of BrdU-induced DNA-damage as being sufficient to induce cellular senescence. […] The results evidence that the cells treated with BrdU underwent cell cycle arrest, as evidenced by both a ˜70% reduction in the number of cells in S-phase, and the induction of beta-galactosidase activity.
Beta-Gal staining: Beta-Galactosidase staining of BrdU-treated MRC-5 cells was performed by Senescence B-Galactosidase Staining Kit (#9860, Cell Signalling Technology Inc.) and was done according to manufacturer's protocol.

Read-outs that look alike come from different tables or passages of the source.

Take `CC[C@H]1OC(=O)[C@H](C)[C@@H](O[C@H]2C[C@@](C)(OC)[C@@H](O)[C@H](C)O2)[C@H](C)[C@@H](O[C@@H]2O[C@H](C)C[C@H](N(C)C)[C@H]2O)[C@](C)(O)C[C@@H](C)/C(=N\OCOCCOC)[C@H](C)[C@@H](O)[C@]1(C)O` [Roxithromycin, roxithromycin]: in data set [1] (50 μM), the “Viability of senescent MRC-5 cells (% versus control)” value (“Viability … (% versus control)” for short) is recorded as 100%. Also, the “effect on senescent MRC-5 cell viability” value in data set [1] (50 μM, 5 days) was “no effect”. Further, in data set [1] (100 μM), the “Viability … (% versus control)” value is recorded as 30.99% and the “senolytic activity in the screening assay” value (“senolytic activity” for short) is “have senolytic activity”. In data set [2], the “effect on viability of normal MRC-5 fibroblasts” value was “small effect”. Also, the “senescent MRC-5 cells targeted (final cell index)” value in data set [3] was 82%. Further, the “effect on viability of normal MRC-5 fibroblasts (final cell index)” value in data set [4] was “minimal effect”.
Take `CC[C@H]1OC(=O)[C@H](C)C(=O)[C@H](C)[C@@H](O[C@@H]2O[C@H](C)C[C@H](N(C)C)[C@H]2O)[C@](C)(OC)C[C@@H](C)C(=O)[C@H](C)[C@H]2N(CCCCn3cnc(-c4cccnc4)c3)C(=O)O[C@]12C` [Telithromycin, telithromycin]: the “senolytic activity” value in data set [1] is “showed beneficial senolytic activity”. Moreover, in data set [3], the “senescent MRC-5 cells targeted (final cell index)” value amounted to 100%. In addition, the “effect on viability of normal MRC-5 fibroblasts (final cell index)” value in data set [4] is “negligible impact”.
`O=c1[nH]c(=O)n([C@H]2C[C@H](O)[C@@H](CO)O2)cc1Br` [BrdU, 5-bromo-2′-deoxyuridine]: the “reduction of DNA synthesis” value in data set [5] is approximately 70%. For the same compound, the “beta-galactosidase staining (biomarker of cellular senescence)” value in data set [6] is given as “positively stained”.
Turning to `CC[C@H]1OC(=O)[C@H](C)[C@@H](O[C@H]2C[C@@](C)(OC)[C@@H](O)[C@H](C)O2)[C@H](C)[C@@H](O[C@@H]2O[C@H](C)C[C@H](N(C)C)[C@H]2O)[C@](C)(O)C[C@@H](C)C(=O)[C@H](C)[C@@H](O)[C@]1(C)O` [Erythromycin, erythromycin], in data set [1], the “senolytic activity” value is “did not show any senolytic activity”. Further, the “Viability … (% versus control)” value in data set [1] (50 μM) and in data set [1] (100 μM) was 100% in each case.
